# Results taken from patent US20080319031A1, “Novel Tyrosine Derivatives” (Orchid Chemicals & Pharmaceuticals Limited, priority 2005, published 2008).
# Tests used:
# [1] = system: human peripheral blood mononuclear cells; assay: Cell viability of human PBMC incubated with compound; type: cell-based; details: hPBMC, highest concentration of the compound
# [2] = system: SJL/J mice; assay: Experimental allergic encephalomyelitis (EAE) model of multiple sclerosis; type: in vivo; details: EAE induced by spinal chord homogenate in SJL/J mice
# Description: Multiple Sclerosis (MS) is an autoimmune disease and is regulated by cytokine levels. In order to test the effect of compound 1 in example 1 in MS model, experimental allergic encepahalomyalitis (EAE) was induced in SJL/J mice. EAE is an autoimmune inflammatory disease of the central nervous system (CNS). […] EAE was induced by injecting spinal chord homogenate and the animals were treated with example compounds. The severity of EAE was established by clinical scores of paralysis.
# [3] = system: TNF-α; assay: LPS induced TNF-α production in vivo; parameters: species or system Swiss Webster (SW) mice; details: one hour before LPS 10 μg/mouse ip, blood after 90 min
# Description: FIG. 3. Compound 1 Inhibits LPS Induced TNF-α Production In Vivo.
# Swiss Webster (SW) mice were orally treated with vehicle, dexamethasone (5 mg/kg bw) and compound 1 in example 1 (50 mg/kg bw) one hour before LPS injection (10 μg/mouse, ip) and blood was collected after 90 min and measured TNF-α levels by ELISA as described in FIG. 1.
# [4] = biological target: T1, COX-2 (Homo sapiens, UniProt P35354); assay: COX-2 inhibition: LPS induced PGE-2 in human PBMC (ELISA); type: cell-based
# T1 construct: LPS, also induces cycloxygenase-2 (COX-2) enzyme in this system; endogenous in cells; host or cells: human peripheral blood mononuclear cells from volunteers, LPS-stimulated
# T1 sequence (P35354 18-604): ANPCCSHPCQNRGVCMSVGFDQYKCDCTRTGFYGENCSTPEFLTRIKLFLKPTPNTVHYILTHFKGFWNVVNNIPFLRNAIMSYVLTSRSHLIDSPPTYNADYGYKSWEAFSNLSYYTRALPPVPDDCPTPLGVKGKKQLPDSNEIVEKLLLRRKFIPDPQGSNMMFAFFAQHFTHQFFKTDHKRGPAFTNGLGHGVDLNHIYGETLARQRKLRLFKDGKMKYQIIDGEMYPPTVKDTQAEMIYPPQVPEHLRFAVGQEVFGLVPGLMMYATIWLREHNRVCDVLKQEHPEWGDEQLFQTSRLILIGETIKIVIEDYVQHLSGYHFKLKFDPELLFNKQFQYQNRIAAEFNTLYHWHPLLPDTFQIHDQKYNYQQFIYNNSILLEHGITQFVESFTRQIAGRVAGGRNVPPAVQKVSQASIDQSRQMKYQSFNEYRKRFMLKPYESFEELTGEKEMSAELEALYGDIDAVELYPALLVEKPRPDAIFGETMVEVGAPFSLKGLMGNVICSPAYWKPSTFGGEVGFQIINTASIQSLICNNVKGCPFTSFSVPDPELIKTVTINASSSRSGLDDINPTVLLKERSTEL
# Description: (§1) The inflammatory stimulus, LPS, also induces cycloxygenase-2 (COX-2) enzyme in this system and as a result prostaglandin E 2 (PGE-2) is produced. Human PBMC cells were cultured and incubated with compound in example 1 at different concentrations. Cells (1×10^6/mL) were challenged with lipopolysaccharides (LPS) at a concentration of (100 ng/mL) for 20 hours. Inhibition of COX-2 was determined by the measurement of PGE-2 levels in the supernatant by ELISA (Cayman Chemicals). For the determination of PGE-2 levels, supernatants were incubated in the ELISA plate and detected by calorimetric reaction. […] The endogenous form, COX-1 is only activated when there is a physiological stimulus and goes through the same pathway for the production of PGE-2 levels. Human monocytic U-937 (2.5×10^5/mL) cells were charged with arachidonic acid to activate the COX-1 pathway. It produced PGE-2 following these kind of physiological induction. To assay the COX-1 activity, cells were preincubated with the compound for 15 min (indomethacin was kept as positive control) and then they were challenged with 10 μM arachidonic acid for next 20 min. Supernatants were harvested and measured for PGE-2 as marker of COX-1 activity.
# [5] = system: TNF-α; assay: TNF-α inhibition in LPS-challenged human PBMC (ELISA); type: cell-based; details: hPBMC 1×10^6/mL, LPS 100 ng/mL for 20 hours, different concentrations
# Description: (§2) FIG. 1. TNF-α, IL-6 and IL-1β inhibition in human peripheral blood monocytic cells (hPBMC).
# (§3) Human PBMC cells were cultured and incubated with compound 1 in example 1 at different concentrations. Cells (1×10^6/mL) were challenged with lipopolysaccharides (LPS) at a concentration of (100 ng/mL) for 20 hours. Cell supernatant was analyzed for the presence of TNF-α, IL-1β and IL-6 cytokines by antibody directed enzyme-linked immunoassay.
# [6] = system: IL-1β; assay: IL-1β inhibition in LPS-challenged human PBMC (ELISA); type: cell-based; details: hPBMC 1×10^6/mL, LPS 100 ng/mL for 20 hours, different concentrations
# Description: as §2, §3
# [7] = system: IL-6; assay: IL-6 inhibition in LPS-challenged human PBMC (ELISA); type: cell-based; details: hPBMC 1×10^6/mL, LPS 100 ng/mL for 20 hours, different concentrations
# Description: as §2, §3
# [8] = biological target: T2, COX-1 (Homo sapiens, UniProt P23219); assay: COX-1 activity: arachidonic acid induced PGE-2 in U-937 cells; type: cell-based; details: 10 μM compound, 10 μM arachidonic acid 20 min
# T2 construct: endogenous in cells; host or cells: U-937 human monocytic cells
# Description: as §1
# [9] = system: DU-145; assay: Prostate cancer cell growth (MTS viability); type: cell-based; details: DU-145, six consecutive days, MTS every 48 hrs
# Description: DU-145 is a prostate cancer cell and they were grown in 96 well plates at 1000 cells/well. The cells were pretreated with either compound 11 in example 11 and 8 in example 8 or DMSO for six consecutive days. Every 48 hrs they were stained with MTS dye and viability was checked accordingly.
# [10] = system: MCF-7; assay: Breast cancer cell growth (MTS viability); type: cell-based; details: for inhibition of breast cancer cell growth: MCF-7, six consecutive days, MTS every 48 hrs
# Description: MCF-7 is a breast cancer cells and they were grown in 96 well plates at 1000 cells/well. The cells were pretreated with either compound 11 in example 11 and 8 in example 8 or DMSO for six consecutive days. Every 48 hrs they were stained with MTS dye and viability was checked accordingly.
# [11] = system: 3T3-L1 fibroblasts; assay: Adipogenesis in 3T3-L1 fibroblasts (Oil-red-O staining); type: cell-based
# Description: FIG. 9. Compound 20 in Example 20 is Not Adipogenic.
# All known PPARγ agonists induce differentiation in fibroblast cells. The adipogenic potential of these compounds are correlated with their affinity to this receptor. To check quickly the affinity of compound 20 in example 20 to this receptors, 3T3-L1 fibroblasts were treated with either DMSO control or rosiglitazone as positive control or these two compounds for several days at different concentrations. On day 13th, the differentiated adipocytes were stained with Oil-red-O (Sigma) and washed thoroughly to remove unbound stain and visualized under Olympus microscope.
# [12] = system: Diet induced obese mice; assay: Body weight in diet induced obesity mouse model; type: in vivo, C57BL/6J male mouse; details: 60% Kcal high fat diet, 50 mg/kg body weight, compared to vehicle
# Description: FIG. 7. Effect of Compound 20 in Example 20 on Diet Induced Obesity Mouse Models. C57BL/6J male mouse were fed with 60% Kcal high fat diet (D12492, Research Diet) ad libitum 15 days prior to the beginning of the treatment. Diet induced obese mice were treated with a dose of 50 mg/kg body weight compound 20 in example 20 and their bodyweight was monitored on every third day.
# [13] = system: C57BL/6J male ob/ob diabetic mice; assay: Blood glucose in ob/ob mice; type: in vivo; details: 50 mg/kg body weight oral in water, within six days of treatment
# Description: FIG. 6. Lowering of Blood Glucose in ob/ob Mice by Compound 20 in Example 20. Seven weeks old C57BL/6J male ob/ob (obese, insulin resistant spontaneous model of type-II diabetes) diabetic mice were orally treated with compound 20 in example 20, at a dose of 50 mg/kg body weight dissolved in water and blood glucose (FIG. 6) was monitored by Accuchek glucometer.
# [14] = system: db/db (spontaneous model) diabetic mice; assay: Blood glucose and body weight in db/db obese diabetic mice; type: in vivo; details: 50 mg/kg body weight oral in water
# Description: FIG. 5. […] Seven weeks old male db/db (spontaneous model) diabetic mice were orally treated with compound 20 in example 20 at a dose of 50 mg/kg body weight in water and blood glucose was monitored by Accuchek glucometer.
# [15] = system: Diet induced obese mice; assay: OGTT and serum insulin in diet induced obesity model; type: in vivo, C57BL/6J male mouse; details: day 60 of high fat feeding
# Description: C57BL/6J male mouse were fed with 60% Kcal high fat diet (D12492, Research Diet) ad libitum 15 days prior to the beginning of the treatment. Diet induced obese mice were treated with a dose of 50 mg/kg body weight compound 20 in example 20 and their bodyweight was monitored on every third day. […] FIG. 8. Oral Glucose Tolerance Test (OGTT) in Diet Induced Obesity Model for Compound 20 in Example 20. […] To see the effect of compound 20 in example 20, on day 60 an OGTT study was carried to observe the improvement of glucose tolerance upon the treatment of compound 20 in example 20.
# [16] = system: HCT-116; assay: Colon cancer cell growth (MTS viability); type: cell-based, human; details: 30 μM, 48 hrs
# Description: FIG. 10. […] HCT-116 is a human colon cancer cell line and they were grown in 96 well plates with seeding concentration of […] cells/mL.
# T2 sequence (P23219 24-599): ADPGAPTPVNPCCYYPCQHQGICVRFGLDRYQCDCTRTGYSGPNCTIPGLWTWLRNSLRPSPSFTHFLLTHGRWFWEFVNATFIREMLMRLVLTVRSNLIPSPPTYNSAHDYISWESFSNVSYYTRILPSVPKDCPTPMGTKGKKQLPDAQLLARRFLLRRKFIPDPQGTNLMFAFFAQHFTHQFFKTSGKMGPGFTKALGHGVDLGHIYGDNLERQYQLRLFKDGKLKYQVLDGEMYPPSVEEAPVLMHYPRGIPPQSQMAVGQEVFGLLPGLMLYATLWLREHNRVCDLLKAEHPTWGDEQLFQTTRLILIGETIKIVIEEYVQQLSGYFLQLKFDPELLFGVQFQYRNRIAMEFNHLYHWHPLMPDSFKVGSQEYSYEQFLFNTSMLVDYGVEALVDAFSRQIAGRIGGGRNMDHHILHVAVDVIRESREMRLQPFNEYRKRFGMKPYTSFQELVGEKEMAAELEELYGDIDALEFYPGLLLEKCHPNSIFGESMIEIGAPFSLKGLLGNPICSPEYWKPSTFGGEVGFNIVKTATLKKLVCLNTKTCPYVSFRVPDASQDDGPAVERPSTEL
smiles,measurement,setting,value
"COC(=O)C(N)Cc1ccc(Oc2ccc(C=C3C(=O)Nc4ccccc43)cc2)cc1.Cl (stereo not drawn) [Compound 1, Methyl-2-amino-3-(4-{4-[(2-oxo-1,2-dihydro-3H-indol-3-ylidene)methyl]phenoxy}phenyl) propanoate hydrochloride]",change in cell viability,[1],No significant change in cell viability
same,severity of EAE (clinical scores of paralysis),[2],complete prevention of EAE
same,reduction of TNF levels compared to control group,[3]; 50 mg/kg bw oral,25%
same,inhibition of LPS induced PGE-2 production,"[4]; 10 μM compound, hPBMC",completely inhibited LPS induced PGE-2 production
same,selectivity on COX-2 over COX-1 activity,[4]; LPS induced vs arachidonic acid induced PGE-2,Selectively Inhibits COX-2 Than COX-1 Enzyme
same,inhibition of LPS induced COX-2 activity (PGE-2 levels),"[4]; hPBMC, LPS 100 ng/mL for 20 hours, different concentrations",dose dependently inhibited LPS induced COX-2 activity
same,inhibition of TNF-α production,[5],inhibit the production of three major pro-inflammatory cytokines in a dose dependent manner
same,inhibition of IL-1β production,[6],inhibit the production of three major pro-inflammatory cytokines in a dose dependent manner
same,inhibition of IL-6 production,[7],inhibit the production of three major pro-inflammatory cytokines in a dose dependent manner
same,effect on arachidonic acid induced PGE-2 levels (COX-1 activity),[8],no effect on arachidonic acid induced PGE-2 levels
"COC(=O)C(N)Cc1ccc(Oc2ccc(C=C3C(=O)Nc4ccccc43)c(C(F)(F)F)c2)cc1.Cl (stereo not drawn) [Compound 8, Methyl-2-amino-3-(4-{3-trifluoromethyl-4-[(2-oxo-1,2-dihydro-3H-indol-3-ylidene)methyl]phenoxy}phenyl) propanoate hydrochloride]",inhibition of prostate cancer cell growth,[9],selectively kills breast cancer cells
same,dose dependence of breast cancer cell growth inhibition,"[10]; MCF-7, doses from 1-50 μM",worked equally well
same,inhibition of breast cancer cell growth,[10],very strong in inhibiting the breast cancer cell growth
"COC(=O)C(N)Cc1ccc(Oc2ccc(CC3C(=O)Nc4ccccc43)cc2C(F)(F)F)cc1.Cl (stereo not drawn) [Compound 11, Methyl-2-amino-3-(4-{2-trifluoromethyl-4-[(2-oxo-2,3-dihydro-1H-indol-3-yl)methyl]phenoxy}phenyl) propanoate hydrochloride]",inhibition of prostate cancer cell growth,[9],very similar in both breast and prostate cancer cells
same,inhibition of breast cancer cell growth,[10],Inhibits Breast Cancer Cell Growth
"CN(C)C(=O)[C@@H](N)Cc1ccc(Oc2ccc(/C=C3/C(=O)Nc4ccccc43)cc2)cc1.Cl [Compound 20, 2-amino-N,N-dimethyl-3-{4-[4-(2-oxo-1,2-dihydroindol-3-ylidenemethyl)-phenoxy]-phenyl}-propionamide hydrochloric acid]",adipogenesis (differentiation of fibroblasts),"[11]; 3T3-L1, different concentrations, stained on day 13",remained unchanged
same,affinity to PPARγ receptor (indirect proof from adipogenesis),[11]; inferred from 3T3-L1 adipogenesis,no affinity to PPARγ receptor
same,body weight gain,[12],less body weight gain compared to vehicle treated animals
same,blood glucose,[13],strong glucose lowering activity
same,blood glucose,[14],Reduces Blood Glucose
same,body weight,[14]; compared to vehicle,lowering of body weight compared to vehicle
same,decrease of serum insulin level,[15],70%
"Cl.NC(=O)[C@@H](N)Cc1ccc(Oc2ccc(/C=C3/C(=O)Nc4ccccc43)cc2)cc1 [Compound 21, 2-amino-3-{4-[4-(2-oxo-1,2-dihydroindol-3-ylidenemethyl)-phenoxy]-phenyl}-propionamide hydrochloric acid]",inhibition of colon cancer cell growth,[16],completely inhibited colon cancer cell growth
"C[C@@H]1C[C@H]2[C@@H]3CCC4=CC(=O)C=C[C@]4(C)[C@@]3(F)[C@@H](O)C[C@]2(C)[C@@]1(O)C(=O)CO [dexamethasone, reference compound]",inhibition of TNF levels,[3]; 5 mg/kg body weight oral,95%
